Here are results for two compounds from ChEMBL document CHEMBL6182945, “MMAE-Based Peptide-Drug Conjugates Targeting GPC3 for Precision Chemoradiotherapy in Hepatocellular Carcinoma” (J Med Chem, 2025).

One data set deals with Hep 3B2. Description: Antiproliferative activity against GPC3-positive human Hep3B cells assessed as cytotoxicity measured after 72 hrs by MTT assay. The data set is classed as functional, cell-based. (In general: Formazan colour is commonly taken as a measure of viable cells.)
The subject of a further data set is Huh-7. Description: Antiproliferative activity against GPC3-positive human Huh-7 cells assessed as cytotoxicity measured after 72 hrs by MTT assay. The data set is classed as functional, cell-based. Particulars: Huh-7, 72 h.
For another data set, the system named is HeLa. Description: Antiproliferative activity against GPC3-negative human HeLa cells assessed as cytotoxicity measured after 72 hrs by MTT assay. The data set is classed as functional, cell-based.
Another data set concerns LX-2. Briefly: Antiproliferative activity against GPC3-negative human LX-2 cells assessed as cytotoxicity measured after 72 hrs by MTT assay. The data set is classed as functional, cell-based. Conditions: LX-2, 72 h.
Data set [1] is described as follows: Plasma stability in human plasma assessed as compound remaining at 500 uM measured after 8 hrs by LC-MS/MS analysis relative to control. The data set is classed as ADME, cell-free. Particulars: read-out: Stability.
Data set [2] in a line: Plasma stability in human plasma assessed as compound remaining at 500 uM measured after 48 hrs by LC-MS/MS analysis relative to control. Particulars: read-out: Stability. The data set is classed as ADME, cell-free.
Data set [3] is described as follows: Plasma stability in mouse plasma assessed as compound remaining at 500 uM measured after 8 hrs by LC-MS/MS analysis relative to control. Particulars: read-out: Stability. The data set is classed as ADME, cell-free.
Data set [4] can be described thus: Plasma stability in human plasma assessed as half life at 500 uM by LC-MS/MS analysis. The data set is classed as ADME, cell-free.
A short description of data set [5]: Plasma stability in mouse plasma assessed as half life at 500 uM by LC-MS/MS analysis. The data set is classed as ADME, cell-free.
Data set [6] is described as follows: Stability in PBS at 500 uM measured up to 48 hrs by LC-MS/MS analysis. The data set is classed as physicochemical. Particulars: buffer.
In the next data set the target is Cathepsin B (Homo sapiens, UniProt P07858). Briefly: Drug metabolism assessed as human cathepsin B-mediated monomethyl auristatin E release in HEK293 cells at pH 5.5 buffer measured after 30 mins by LC-MS/MS analysis. The data set is classed as ADME, cell-based. Particulars: hek293, pH 5.5, 0.5 h.
Data set [7] in a line: Toxicity in female BALB/c mouse xenografted with human Huh-7 cells assessed as body weight change at 0.5 to 2 mg/kg, iv total 4 doses measured on day 17. The data set is classed as organism-based. Particulars: in vivo, 408 h, dose 0.5-2 mg/kg, time 17 day.
The nature of data set [8]: Toxicity in female BALB/c mouse xenografted with human Huh-7 cells assessed as pathological change in heart tissue at 2 mg/kg, iv total 4 doses measured on day 17 by hematoxylin and eosin (H and E) staining analysis. The data set is classed as organism-based. Particulars: in vivo, 408 h, time 17 day.
The nature of data set [9]: Toxicity in female BALB/c mouse xenografted with human Huh-7 cells assessed as pathological change in liver tissue at 2 mg/kg, iv total 4 doses measured on day 17 by hematoxylin and eosin (H and E) staining analysis. The data set is classed as organism-based. Conditions: in vivo, 408 h, time 17 day. In general terms: A xenograft is tissue or cells of one species grown in another, often human tumour cells in immunodeficient mice.

The nature of data set [10]: Toxicity in female BALB/c mouse xenografted with human Huh-7 cells assessed as pathological change in spleen tissue at 2 mg/kg, iv total 4 doses measured on day 17 by hematoxylin and eosin (H and E) staining analysis. The data set is classed as organism-based. Particulars: in vivo, 408 h, time 17 day.
A short description of data set [11]: Toxicity in female BALB/c mouse xenografted with human Huh-7 cells assessed as pathological change in lung tissue at 2 mg/kg, iv total 4 doses measured on day 17 by hematoxylin and eosin (H and E) staining analysis. Conditions: in vivo, 408 h, time 17 day. The data set is classed as organism-based.
Data set [12] is described as follows: Toxicity in female BALB/c mouse xenografted with human Huh-7 cells assessed as pathological change in kidney tissue at 2 mg/kg, iv total 4 doses measured on day 17 by hematoxylin and eosin (H and E) staining analysis. The data set is classed as organism-based. Particulars: in vivo, 408 h, time 17 day.
Data set [13] in a line: Toxicity in female BALB/c mouse xenografted with human Huh-7 cells assessed as body weight change at 1 mg/kg, iv followed by irradiated with 2 Gy for 2 consecutive days, once a week for 3 weeks measured on day 22. Conditions: in vivo, 528 h, time 22 day. The data set is classed as organism-based.
The nature of data set [14]: Toxicity in female BALB/c mouse xenografted with human Huh-7 cells assessed as pathological change in heart tissue at 1 mg/kg, iv followed by irradiated with 2 Gy for 2 consecutive days, once a week for 3 weeks measured on day 22. The data set is classed as organism-based. Particulars: in vivo, 528 h, time 22 day.
Data set [15] in a line: Toxicity in female BALB/c mouse xenografted with human Huh-7 cells assessed as pathological change in liver tissue at 1 mg/kg, iv followed by irradiated with 2 Gy for 2 consecutive days, once a week for 3 weeks measured on day 22. The data set is classed as organism-based. Particulars: in vivo, 528 h, time 22 day.
Data set [16] in a line: Toxicity in female BALB/c mouse xenografted with human Huh-7 cells assessed as pathological change in spleen tissue at 1 mg/kg, iv followed by irradiated with 2 Gy for 2 consecutive days, once a week for 3 weeks measured on day 22. The data set is classed as organism-based. Particulars: in vivo, 528 h, time 22 day.
Data set [17] is described as follows: Toxicity in female BALB/c mouse xenografted with human Huh-7 cells assessed as pathological change in lung tissue at 1 mg/kg, iv followed by irradiated with 2 Gy for 2 consecutive days, once a week for 3 weeks measured on day 22. The data set is classed as organism-based. Conditions: in vivo, 528 h, time 22 day.
Data set [18] in a line: Toxicity in female BALB/c mouse xenografted with human Huh-7 cells assessed as pathological change in kidney tissue at 1 mg/kg, iv followed by irradiated with 2 Gy for 2 consecutive days, once a week for 3 weeks measured on day 22. The data set is classed as organism-based. Particulars: in vivo, 528 h, time 22 day.
Data set [19] is described as follows: Drug uptake in human Huh-7 cells assessed as red fluorescence in inside the cells measured after 30 mins by live cell confocal imaging analysis. The data set is classed as ADME, cell-based. Conditions: huh-7, 0.5 h.
Data set [20] is described as follows: Drug uptake in human Huh-7 cells assessed as green fluorescence in lysosomes measured after 30 mins co-staining with lysotracker by live cell confocal imaging analysis. The data set is classed as ADME, cell-based. Conditions: huh-7, 0.5 h.

Bounds are passed on as bounds.

The term IC50 denotes the concentration that inhibits the measured activity by half. One may read the half-life as the time needed for the level to fall by half in the phase considered. Regarding `CC[C@H](C)[C@@H]([C@@H](CC(=O)N1CCC[C@H]1[C@H](OC)[C@@H](C)C(=O)N[C@H](C)[C@@H](O)c1ccccc1)OC)N(C)C(=O)[C@@H](NC(=O)[C@H](C(C)C)N(C)C(=O)OCc1ccc(NC(=O)[C@H](CCCNC(N)=O)NC(=O)[C@@H](NC(=O)CCCCCN2C(=O)CC(SC[C@H](N)C(=O)N[C@@H](CO)C(=O)N[C@@H](CC(N)=O)C(=O)N[C@@H](CC(=O)O)C(=O)N[C@@H](CCCNC(=N)N)C(=O)N3CCC[C@H]3C(=O)N3CCC[C@H]3C(=O)N[C@@H](CC(N)=O)C(=O)N[C@H](C(=O)N[C@@H](CC(C)C)C(=O)N[C@@H](CCC(N)=O)C(=O)N[C@@H](CCCCN)C(=O)N[C@@H](CCCNC(=N)N)C(N)=O)[C@@H](C)CC)C2=O)C(C)C)cc1)C(C)C` (stereo not given in full), the IC50 with Hep 3B2 was 12.2 nM; in the data set with Huh-7, 1.91 nM; with HeLa, greater than 100 nM; in the data set with LX-2 it was greater than 100 nM. Further, the results for the remaining at 8 h, 500 µM in data set [1] and in data set [3] were 57.2% and 19.9%, respectively. Further, the remaining at 48 h, 500 µM in data set [2] is 25.3%. Further, the values for the half-life at 500 µM in data set [4] and in [5] were 8.8 h and 4 h, respectively. Moreover, in data set [6], the Stability result is recorded as “Stable”. The Drug metabolism entry at Cathepsin B was “metabolite_detected”. Moreover, the Activity result in data set [7], in data set [8], in data set [9], in [10], in data set [11] and in data set [12] was “Non-toxic” throughout. For the same compound, the Activity result in [13], in data set [14], in [15], in data set [16], in [17] and in data set [18] was “Non-toxic” in each case.
As for `CC[C@H](C)[C@@H]([C@@H](CC(=O)N1CCC[C@H]1[C@H](OC)[C@@H](C)C(=O)N[C@H](C)[C@@H](O)c1ccccc1)OC)N(C)C(=O)[C@@H](NC(=O)[C@H](C(C)C)N(C)C(=O)OCc1ccc(NC(=O)[C@H](CCCNC(N)=O)NC(=O)[C@@H](NC(=O)CCCCCN2C(=O)CC(SC[C@H](NC(=O)CCCCC[N+]3=C(/C=C/C=C/C=C4\N(C)c5ccc6ccccc6c5C4(C)C)C(C)(C)c4c3ccc3ccccc43)C(=O)N[C@@H](CO)C(=O)N[C@@H](CC(N)=O)C(=O)N[C@@H](CC(=O)O)C(=O)N[C@@H](CCCNC(=N)N)C(=O)N3CCC[C@H]3C(=O)N3CCC[C@H]3C(=O)N[C@@H](CC(N)=O)C(=O)N[C@H](C(=O)N[C@@H](CC(C)C)C(=O)N[C@@H](CCC(N)=O)C(=O)N[C@@H](CCCCN)C(=O)N[C@@H](CCCNC(=N)N)C(N)=O)[C@@H](C)CC)C2=O)C(C)C)cc1)C(C)C` (stereo not given in full), the Drug uptake entry in data set [19] and in [20] was “Active” in each case.
